This is an account of results in US4864023A, “Pyrido(3,2,1-IJ)-1,3,4-benzoxadiazine derivatives” (priority 1988, dated 1989).

Holding throughout (test): in vitro antibacterial activity, standard agar dilution method
Holding throughout (format): cell-based

Assay [1] relates to Alcaligenes faecalis IFO 13111. The following applies: IFO13111, aerobic, read-out: minimum inhibitory concentration (MIC).
Assay [2] deals with Enterococcus faecalis NR 2943. The following applies: NR2943, aerobic, read-out: minimum inhibitory concentration (MIC).
Assay [3] concerns Staphylococcus epidermidis IFO 12993. The settings on record: IFO12993, aerobic, read-out: minimum inhibitory concentration (MIC).
For assay [4], the system named is Enterobacter cloacae NR 2946. The settings on record: NR2946, aerobic, read-out: minimum inhibitory concentration (MIC).
Assay [5] deals with Bacillus subtilis PCI 219. The settings on record: PCI219, aerobic, read-out: minimum inhibitory concentration (MIC).
The test system of a further assay is Escherichia coli NR 2630.
Assay [6] has as its system Staphylococcus aureus NR 2855. The settings on record: NR2855; Staphylococcus aureus NR 2855; aerobic; agar dilution; read-out: minimum inhibitory concentration (MIC). In general terms: Agar dilution tests growth on a series of plates holding different concentrations.
Assay [7] has as its system Enterobacter aerogenes NR 2945. The settings on record: Klebsiella aerogenes, NR2945, aerobic, read-out: minimum inhibitory concentration (MIC).
Assay [8] deals with Staphylococcus epidermidis NR 2942. The settings on record: NR2942, aerobic, read-out: minimum inhibitory concentration (MIC).
The test system of assay [9] is Pseudomonas aeruginosa A3. The settings on record: aerobic, read-out: minimum inhibitory concentration (MIC).
Assay [10] concerns Proteus vulgaris OX19 ATCC 6898. The following applies: ATCC6898, aerobic, read-out: minimum inhibitory concentration (MIC).
Assay [11] deals with Salmonella typhimurium IFO 12529. The settings on record: Salmonella enterica, aerobic, read-out: minimum inhibitory concentration (MIC).
For assay [12], the system named is Pseudomonas aeruginosa NR 2950. The settings on record: NR2950, aerobic, read-out: minimum inhibitory concentration (MIC).
For assay [13], the system named is Citrobacter freundii IFO 12681. The settings on record: IFO12681, aerobic, read-out: minimum inhibitory concentration (MIC).
In assay [14] the test system is Staphylococcus aureus Smith. The settings on record: read-out: minimum inhibitory concentration (MIC).
Assay [15] relates to Proteus rettgeri ATCC 14505. The following applies: Providencia rettgeri, ATCC14505, aerobic, read-out: minimum inhibitory concentration (MIC).
For assay [16], the system named is Escherichia coli NIHJ JC-2. The settings on record: NIHJJC2, aerobic, read-out: minimum inhibitory concentration (MIC).
For assay [17], the system named is Bordetella bronchiseptica ATCC 4617. The following applies: ATCC4617, aerobic, read-out: minimum inhibitory concentration (MIC).
In assay [18] the test system is Staphylococcus aureus FDA 209P JC-1. The following applies: FDA209P, read-out: minimum inhibitory concentration (MIC).
Assay [19] concerns Klebsiella pneumoniae FDA PCI 602. The settings on record: FDAPCI602, aerobic, read-out: minimum inhibitory concentration (MIC).
Assay [20] relates to Serratia marcescens IFO 12648. The following applies: IFO12648, aerobic, read-out: minimum inhibitory concentration (MIC).
The test system of assay [21] is Pseudomonas stutzeri IFO 12695. The settings on record: Stutzerimonas stutzeri, IFO12695, aerobic, read-out: minimum inhibitory concentration (MIC).
The mark [22] stands for this setting: NR2630, Escherichia coli NR 2630, aerobic, agar dilution, read-out: minimum inhibitory concentration (MIC).
Setting [23] is: Staphylococcus aureus FDA 209P JC-1, aerobic, agar dilution.

The structures appear in SMILES notation. Converted amounts (≈) assume the structure as drawn. Where two headings read alike, the source gives them in different places.

For the molecule `CN1COc2c(N3CCC(N)C3)c(F)cc3c(=O)c(C(=O)OCOC(=O)C(C)(C)C)cn1c23` (stereo not drawn) [Example 63, pivaloyloxymethyl 10-(3-amino-1-pyrrolidinyl)-9-fluoro-3-methyl-7-oxo-2,3-dihydro-7H-pyrido[3,2,1-ij]-1,3,4-benzoxadiazine-6-carboxylate], the MIC is 100 µg/mL (≈ 216 µM) in [1]; 25 µg/mL (≈ 54.1 µM) in assay [2]; 1.56 µg/mL (≈ 3.37 µM) in assay [3]; 1.56 µg/mL (≈ 3.37 µM) in assay [4]; 0.78 µg/mL (≈ 1.69 µM) in assay [5]; 0.78 µg/mL (≈ 1.69 µM) in the assay with Escherichia coli NR 2630 (setting [22]). For the same molecule, the MIC is 3.13 µg/mL (≈ 6.77 µM) in [6]; 0.39 µg/mL (≈ 0.843 µM) in assay [7]; 0.78 µg/mL (≈ 1.69 µM) in [8]; 3.13 µg/mL (≈ 6.77 µM) in [9]; 0.39 µg/mL (≈ 0.843 µM) in [10]; 0.78 µg/mL (≈ 1.69 µM) in [11]. The MIC in assay [12] was determined as 25 µg/mL (≈ 54.1 µM); in assay [13], 0.78 µg/mL (≈ 1.69 µM); in assay [14] (Staphylococcus aureus), 0.39 µg/mL (≈ 0.843 µM); in [15], 6.25 µg/mL (≈ 13.5 µM); in assay [16] it was 1.56 µg/mL (≈ 3.37 µM); in assay [17], 50 µg/mL (≈ 108 µM). Moreover, the MIC is 0.78 µg/mL (≈ 1.69 µM) in [18] (setting [23]), 6.25 µg/mL (≈ 13.5 µM) in assay [19], 3.13 µg/mL (≈ 6.77 µM) in [20] and 0.39 µg/mL (≈ 0.843 µM) in [21].
As to `CC1Oc2c(N3CCNCC3)c(F)cc3c(=O)c(C(=O)O)cn(c23)N1C` (stereo not drawn) [Example 25], the MIC is 50 µg/mL (≈ 138 µM) in [1]; 100 µg/mL (≈ 276 µM) in assay [2]; 6.25 µg/mL (≈ 17.2 µM) in assay [3]; 0.78 µg/mL (≈ 2.15 µM) in assay [4]; 0.78 µg/mL (≈ 2.15 µM) in assay [5]; 0.39 µg/mL (≈ 1.08 µM) with Escherichia coli NR 2630 (Escherichia coli, NR2630, read-out: minimum inhibitory concentration (MIC)). For the same molecule, the MIC came to 12.5 µg/mL (≈ 34.5 µM) in assay [6]; 0.39 µg/mL (≈ 1.08 µM) in [7]; 6.25 µg/mL (≈ 17.2 µM) in assay [8]; 3.13 µg/mL (≈ 8.64 µM) in assay [9]; 0.1 µg/mL (≈ 0.276 µM) in assay [10]; 0.2 µg/mL (≈ 0.552 µM) in [11]. Moreover, the MIC is 50 µg/mL (≈ 138 µM) in assay [12]; 0.78 µg/mL (≈ 2.15 µM) in [13]; 1.56 µg/mL (≈ 4.31 µM) in assay [14] (Staphylococcus aureus Smith, aerobic, agar dilution); 25 µg/mL (≈ 69 µM) in assay [15]; 0.78 µg/mL (≈ 2.15 µM) in assay [16]; 100 µg/mL (≈ 276 µM) in assay [17]. Besides, the MIC in assay [18] (setting [23]) was 6.25 µg/mL (≈ 17.2 µM); in assay [19], 3.13 µg/mL (≈ 8.64 µM); in assay [20], 3.13 µg/mL (≈ 8.64 µM); in [21] it was 0.39 µg/mL (≈ 1.08 µM).
As for `CN1COc2c(N3CCC(O)C3)c(F)cc3c(=O)c(C(=O)O)cn1c23` (stereo not drawn) [Example 21, 9-fluoro-10-(3-hydroxy-1-pyrrolidinyl)-3-methyl-7-oxo-2,3-dihydro-7H-pyrido[3,2,1-ij]-1,3,4-benzoxadiazine-6-carboxylic acid], the MIC came to 0.78 µg/mL (≈ 2.23 µM) in [1]; 3.13 µg/mL (≈ 8.96 µM) in [2]; 0.39 µg/mL (≈ 1.12 µM) in assay [3]; 0.78 µg/mL (≈ 2.23 µM) in assay [4]; 0.05 µg/mL (≈ 0.143 µM) in assay [5]; 0.2 µg/mL (≈ 0.573 µM) with Escherichia coli NR 2630 (setting [22]). In addition, the MIC was 0.2 µg/mL (≈ 0.573 µM) in assay [6]; 0.2 µg/mL (≈ 0.573 µM) in assay [7]; 0.39 µg/mL (≈ 1.12 µM) in assay [8]; 1.56 µg/mL (≈ 4.47 µM) in assay [9]; 0.05 µg/mL (≈ 0.143 µM) in assay [10]; 0.39 µg/mL (≈ 1.12 µM) in assay [11]. The MIC in [12] is 3.13 µg/mL (≈ 8.96 µM); in assay [13] it was 0.78 µg/mL (≈ 2.23 µM); in assay [14] (Staphylococcus aureus) it was 0.39 µg/mL (≈ 1.12 µM); in assay [15] it was 0.78 µg/mL (≈ 2.23 µM); in assay [16], 0.39 µg/mL (≈ 1.12 µM); in assay [17], 0.78 µg/mL (≈ 2.23 µM). In addition, the MIC in [18] (Staphylococcus aureus) was found to be 0.39 µg/mL (≈ 1.12 µM); in assay [19], 0.78 µg/mL (≈ 2.23 µM); in assay [20], 0.39 µg/mL (≈ 1.12 µM); in [21] it was 0.2 µg/mL (≈ 0.573 µM).
